From US7667042B2, “Stable polymorphic forms of an anticonvulsant” (Sun Pharma Advanced Research Company Ltd., priority 2003, dated 2010)
Values joined by “and” are separate entries in the source; they are usually repeats but may differ in a detail not shown here. Equal values may be shown once. Where a name gives a salt, the structure may show the parent alone. Blank lines part the entries; values can stand above or below the compound they belong to.

Experiments:
[1] = XRD analysis after 6 months storage at ambient conditions (polymorph stability); type: physicochemical; conditions: hydrochloride
From the text: In embodiment of the present invention the stable polymorph IV of tiagabine hydrochloride may be obtained in particle size with volume mean diameter (VMD) less than 20 microns.

[2] = Particle size analysis by HELOS (H1551) & RODOS; type: physicochemical; conditions: hydrochloride
From the text: Particle Size Analysis (Analysed by HELOS (H1551) & RODOS)

[3] = Solubility of tiagabine hydrochloride in various solvents at room temperature; type: physicochemical; conditions: 100 mg sample
[4] = reported in prior art, cited from earlier work; for Thermal stability: elevated temperature, hydrochloride

Change in x-ray diffraction pattern on storage (polymorphic stability) [1]: matches the XRD of ‘0’ day sample
Volume mean diameter (VMD) [2]: 16.7 microns and 19.8 microns
SMILES: Cc1ccsc1C(=CCCN1CCC[C@@H](C(=O)O)C1)c1sccc1C [Form IV, tiagabine hydrochloride]
Change in x-ray diffraction pattern on storage (polymorphic stability) ([1]; listed as polymorph IV): no change in the x-ray diffraction pattern

Solubility: volume of solvent ([3]; Acetone): 24 mL
Solubility: volume of solvent ([3]; Acetonitrile): >100 mL
Solubility: volume of solvent ([3]; DMF): 0.5 mL
Solubility: volume of solvent ([3]; Ethanol): 0.3 mL
Solubility: volume of solvent ([3]; Ethylacetate): >100 mL
Solubility: volume of solvent ([3]; IPA): 1.3 mL
Solubility: volume of solvent ([3]; Methanol): 0.2 mL
Solubility: volume of solvent ([3]; Toluene): >100 mL
Solubility: volume of solvent ([3]; Water): 0.7 mL
SMILES: Cc1ccsc1C(=CCCN1CCC[C@@H](C(=O)O)C1)c1sccc1C [tiagabine hydrochloride]

SMILES: Cc1ccsc1C(=CCCN1CCC[C@@H](C(=O)O)C1)c1sccc1C [Form II, tiagabine hydrochloride]
Thermal stability [4]: thermally stable
Hygroscopicity [4]: non-hygroscopic

Volume mean diameter (VMD) [2]: 60.2 microns
SMILES: Cc1ccsc1C(=CCCN1CCC[C@@H](C(=O)O)C1)c1sccc1C [Form I, tiagabine hydrochloride]
Thermal stability [4]: less stable at elevated temperature
Hygroscopicity [4]: non-hygroscopic
Stability [4]: stable
